Reference: ChEMBL document CHEMBL3862033 (J Med Chem, 2016)
Active and inactive are the calls of the source. The rule behind the calls is not given here.

Tests used:
[1] = molecular target: T1, 5-hydroxytryptamine receptor 1A (Homo sapiens) (UniProt P08908); test: Displacement of [3H]WAY100635 from human 5-HT1AR expressed in CHO cell membranes at 10 uM incubated for 90 mins under dark condition by microbeta scintillation counting method relative to control
T1 sequence (whole entry): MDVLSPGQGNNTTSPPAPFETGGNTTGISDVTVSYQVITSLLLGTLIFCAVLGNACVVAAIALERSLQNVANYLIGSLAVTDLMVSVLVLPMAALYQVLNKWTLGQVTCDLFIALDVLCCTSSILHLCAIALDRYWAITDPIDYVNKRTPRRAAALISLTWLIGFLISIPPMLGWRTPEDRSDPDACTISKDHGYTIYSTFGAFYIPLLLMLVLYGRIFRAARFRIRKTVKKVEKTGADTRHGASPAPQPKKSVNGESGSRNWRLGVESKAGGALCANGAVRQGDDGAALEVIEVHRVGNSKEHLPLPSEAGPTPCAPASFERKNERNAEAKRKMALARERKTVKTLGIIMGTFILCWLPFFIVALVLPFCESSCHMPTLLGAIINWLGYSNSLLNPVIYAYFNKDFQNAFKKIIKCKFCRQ

[2] = molecular target: 5-hydroxytryptamine receptor 1B (Homo sapiens) (UniProt P28222); test: Displacement of [3H]5-CT from human 5-HT1BR expressed in HEK cell membranes at 10 uM incubated for 90 mins under dark condition by microbeta scintillation counting method relative to control; settings: HEK293
Chain of 5-hydroxytryptamine receptor 1B (Homo sapiens) (P28222 whole entry): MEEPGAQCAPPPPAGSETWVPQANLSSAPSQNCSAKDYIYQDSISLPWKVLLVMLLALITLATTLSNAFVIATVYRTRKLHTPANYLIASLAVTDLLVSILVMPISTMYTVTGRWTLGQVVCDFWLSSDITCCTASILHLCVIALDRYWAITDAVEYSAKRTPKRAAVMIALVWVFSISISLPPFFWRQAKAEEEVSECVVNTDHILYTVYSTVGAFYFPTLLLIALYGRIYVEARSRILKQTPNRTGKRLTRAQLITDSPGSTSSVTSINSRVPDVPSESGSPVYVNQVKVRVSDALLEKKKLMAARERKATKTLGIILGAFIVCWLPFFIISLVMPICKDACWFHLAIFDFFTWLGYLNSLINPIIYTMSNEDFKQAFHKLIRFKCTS

[3] = molecular target: 5-hydroxytryptamine receptor 1D (Homo sapiens) (UniProt P28221); test: Displacement of [3H]5-CT from human 5-HT1D receptor expressed in HEK-T cell membranes at 10 uM incubated for 90 mins under dark condition by microbeta scintillation counting method relative to control
Chain of 5-hydroxytryptamine receptor 1D (Homo sapiens) (P28221 whole entry): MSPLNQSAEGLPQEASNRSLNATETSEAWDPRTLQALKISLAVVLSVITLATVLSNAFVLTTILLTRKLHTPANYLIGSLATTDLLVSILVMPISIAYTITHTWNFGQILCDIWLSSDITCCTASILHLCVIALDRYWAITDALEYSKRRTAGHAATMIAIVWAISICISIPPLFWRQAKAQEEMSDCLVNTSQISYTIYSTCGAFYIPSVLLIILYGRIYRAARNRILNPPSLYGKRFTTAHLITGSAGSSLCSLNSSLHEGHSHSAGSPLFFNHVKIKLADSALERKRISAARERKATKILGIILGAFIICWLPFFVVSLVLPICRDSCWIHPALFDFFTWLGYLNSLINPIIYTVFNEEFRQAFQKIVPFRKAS

[4] = molecular target: 5-hydroxytryptamine receptor 1E (Homo sapiens) (UniProt P28566); test: Displacement of [3H]5-HT from human 5-HT1E receptor expressed in HEK cell membranes at 10 uM incubated for 90 mins under dark condition by microbeta scintillation counting method relative to control; settings: HEK293
Chain of 5-hydroxytryptamine receptor 1E (Homo sapiens) (P28566 whole entry): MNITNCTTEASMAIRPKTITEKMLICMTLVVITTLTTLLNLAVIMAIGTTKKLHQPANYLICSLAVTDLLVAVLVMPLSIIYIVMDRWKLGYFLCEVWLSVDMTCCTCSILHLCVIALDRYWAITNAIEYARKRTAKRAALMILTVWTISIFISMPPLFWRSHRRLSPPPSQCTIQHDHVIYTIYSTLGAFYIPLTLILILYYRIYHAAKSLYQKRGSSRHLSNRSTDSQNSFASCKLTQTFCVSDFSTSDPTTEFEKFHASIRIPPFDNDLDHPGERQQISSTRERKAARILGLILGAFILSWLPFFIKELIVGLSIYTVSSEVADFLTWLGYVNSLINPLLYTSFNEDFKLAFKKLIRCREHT

[5] = molecular target: 5-hydroxytryptamine receptor 4 (Homo sapiens) (UniProt Q13639); test: Displacement of [3H]GR113808 from human 5-HT4 receptor at 10 uM incubated for 90 mins under dark condition by microbeta scintillation counting method relative to control
Chain of 5-hydroxytryptamine receptor 4 (Homo sapiens) (Q13639 whole entry): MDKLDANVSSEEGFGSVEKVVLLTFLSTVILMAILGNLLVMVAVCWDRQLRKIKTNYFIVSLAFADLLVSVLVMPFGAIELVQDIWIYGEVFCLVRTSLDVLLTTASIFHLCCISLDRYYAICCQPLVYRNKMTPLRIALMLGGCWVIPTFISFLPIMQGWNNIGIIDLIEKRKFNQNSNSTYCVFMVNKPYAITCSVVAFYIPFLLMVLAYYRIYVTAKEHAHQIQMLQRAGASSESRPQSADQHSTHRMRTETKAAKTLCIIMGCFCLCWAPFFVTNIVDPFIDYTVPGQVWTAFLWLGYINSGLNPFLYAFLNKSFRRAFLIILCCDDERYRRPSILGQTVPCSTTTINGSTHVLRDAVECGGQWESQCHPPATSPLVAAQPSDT

[6] = molecular target: 5-hydroxytryptamine receptor 6 (Homo sapiens) (UniProt P50406); test: Displacement of [3H]LSD from human 5-HT6 receptor expressed in HEK cell membranes at 10 uM incubated for 90 mins under dark condition by microbeta scintillation counting method relative to control; settings: HEK293
Chain of 5-hydroxytryptamine receptor 6 (Homo sapiens) (P50406 whole entry): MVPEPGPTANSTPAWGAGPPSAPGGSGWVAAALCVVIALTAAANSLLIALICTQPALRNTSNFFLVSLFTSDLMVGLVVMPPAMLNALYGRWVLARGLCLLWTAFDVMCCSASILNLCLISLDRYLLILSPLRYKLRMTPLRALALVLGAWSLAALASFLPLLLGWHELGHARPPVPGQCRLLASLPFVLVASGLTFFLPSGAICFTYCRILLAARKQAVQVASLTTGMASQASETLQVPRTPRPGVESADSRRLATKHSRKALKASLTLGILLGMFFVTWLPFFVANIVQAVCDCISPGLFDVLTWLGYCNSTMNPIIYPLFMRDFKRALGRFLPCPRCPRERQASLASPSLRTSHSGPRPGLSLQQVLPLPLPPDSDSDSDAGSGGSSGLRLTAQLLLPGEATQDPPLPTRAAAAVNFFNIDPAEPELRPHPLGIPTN

[7] = molecular target: 5-hydroxytryptamine receptor 7 (Homo sapiens) (UniProt P34969); test: Displacement of [3H]LSD from human 5-HT7A receptor expressed in HEK cell membranes at 10 uM incubated for 90 mins under dark condition by microbeta scintillation counting method relative to control; settings: HEK293
Chain of 5-hydroxytryptamine receptor 7 (Homo sapiens) (P34969 whole entry): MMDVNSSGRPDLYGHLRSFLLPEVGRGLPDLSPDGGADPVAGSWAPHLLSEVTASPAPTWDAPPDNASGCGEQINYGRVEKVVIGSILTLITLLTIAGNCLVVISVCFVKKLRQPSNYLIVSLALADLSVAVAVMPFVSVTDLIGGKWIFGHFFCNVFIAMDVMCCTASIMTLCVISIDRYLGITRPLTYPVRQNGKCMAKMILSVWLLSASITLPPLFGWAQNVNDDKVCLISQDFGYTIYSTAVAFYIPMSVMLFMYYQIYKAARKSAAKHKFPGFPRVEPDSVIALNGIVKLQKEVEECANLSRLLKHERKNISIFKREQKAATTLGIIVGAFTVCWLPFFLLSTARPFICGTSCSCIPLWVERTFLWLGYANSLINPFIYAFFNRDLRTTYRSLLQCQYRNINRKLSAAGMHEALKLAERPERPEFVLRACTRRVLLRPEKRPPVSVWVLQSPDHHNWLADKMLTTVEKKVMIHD

[8] = molecular target: T2, 5-hydroxytryptamine receptor 3A (Homo sapiens) (UniProt P46098); test: Displacement of [3H]GR65630 from human 5-HT3 receptor expressed in HEK-T cell membranes at 10 uM incubated for 90 mins under dark condition by microbeta scintillation counting method relative to control
T2 sequence (whole entry): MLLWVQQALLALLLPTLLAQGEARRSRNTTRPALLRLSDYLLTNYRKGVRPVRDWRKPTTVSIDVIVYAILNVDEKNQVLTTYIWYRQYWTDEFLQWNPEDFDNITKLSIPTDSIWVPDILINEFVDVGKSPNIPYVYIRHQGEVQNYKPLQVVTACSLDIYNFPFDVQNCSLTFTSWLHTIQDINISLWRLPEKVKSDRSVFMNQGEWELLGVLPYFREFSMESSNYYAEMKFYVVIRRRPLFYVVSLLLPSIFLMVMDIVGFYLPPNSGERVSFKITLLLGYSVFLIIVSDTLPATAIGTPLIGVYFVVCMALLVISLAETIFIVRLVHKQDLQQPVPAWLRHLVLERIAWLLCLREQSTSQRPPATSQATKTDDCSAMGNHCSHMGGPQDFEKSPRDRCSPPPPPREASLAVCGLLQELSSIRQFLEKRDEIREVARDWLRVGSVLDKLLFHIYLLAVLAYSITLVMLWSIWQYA

[9] = molecular target: 5-hydroxytryptamine receptor 5A (Homo sapiens) (UniProt P47898); test: Displacement of [3H]LSD from human 5-HT5A receptor expressed in Flp-In-CHO cell membranes incubated for 90 mins under dark condition by microbeta scintillation counting method relative to control; parameters: concentration or dose not given beside the values
Chain of 5-hydroxytryptamine receptor 5A (Homo sapiens) (P47898 whole entry): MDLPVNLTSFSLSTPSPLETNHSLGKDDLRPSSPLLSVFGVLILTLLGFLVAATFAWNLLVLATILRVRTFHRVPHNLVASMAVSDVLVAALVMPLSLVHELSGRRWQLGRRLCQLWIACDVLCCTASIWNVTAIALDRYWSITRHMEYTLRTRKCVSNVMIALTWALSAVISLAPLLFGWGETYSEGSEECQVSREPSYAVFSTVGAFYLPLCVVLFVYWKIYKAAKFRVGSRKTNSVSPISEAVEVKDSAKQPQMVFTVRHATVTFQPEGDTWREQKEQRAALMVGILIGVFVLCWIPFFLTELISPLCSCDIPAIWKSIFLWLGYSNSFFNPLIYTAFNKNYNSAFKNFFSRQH

[10] = molecular target: T3, 5-hydroxytryptamine receptor 2A (Homo sapiens, UniProt P28223); test: Displacement of [3H]ketanserin from human 5-HT2A receptor expressed in HEK-T cell membranes at 10 uM incubated for 90 mins under dark condition by microbeta scintillation counting method relative to control
T3 sequence (P28223 whole entry): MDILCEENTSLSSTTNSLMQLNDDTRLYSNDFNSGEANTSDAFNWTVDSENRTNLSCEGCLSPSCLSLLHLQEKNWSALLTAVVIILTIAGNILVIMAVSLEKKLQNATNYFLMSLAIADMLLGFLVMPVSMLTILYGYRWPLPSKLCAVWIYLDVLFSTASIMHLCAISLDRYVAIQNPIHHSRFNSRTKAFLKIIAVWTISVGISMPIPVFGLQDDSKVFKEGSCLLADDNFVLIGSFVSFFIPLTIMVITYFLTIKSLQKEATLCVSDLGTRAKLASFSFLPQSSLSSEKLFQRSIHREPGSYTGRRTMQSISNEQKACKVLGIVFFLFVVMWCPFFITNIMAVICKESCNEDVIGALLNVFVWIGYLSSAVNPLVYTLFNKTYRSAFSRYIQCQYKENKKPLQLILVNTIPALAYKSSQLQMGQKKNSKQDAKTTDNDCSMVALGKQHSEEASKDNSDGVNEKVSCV

[11] = molecular target: T4, 5-hydroxytryptamine receptor 2B (Homo sapiens, UniProt P41595); test: biochemical; assay type: cell-based, HEK293
T4 sequence (P41595 whole entry): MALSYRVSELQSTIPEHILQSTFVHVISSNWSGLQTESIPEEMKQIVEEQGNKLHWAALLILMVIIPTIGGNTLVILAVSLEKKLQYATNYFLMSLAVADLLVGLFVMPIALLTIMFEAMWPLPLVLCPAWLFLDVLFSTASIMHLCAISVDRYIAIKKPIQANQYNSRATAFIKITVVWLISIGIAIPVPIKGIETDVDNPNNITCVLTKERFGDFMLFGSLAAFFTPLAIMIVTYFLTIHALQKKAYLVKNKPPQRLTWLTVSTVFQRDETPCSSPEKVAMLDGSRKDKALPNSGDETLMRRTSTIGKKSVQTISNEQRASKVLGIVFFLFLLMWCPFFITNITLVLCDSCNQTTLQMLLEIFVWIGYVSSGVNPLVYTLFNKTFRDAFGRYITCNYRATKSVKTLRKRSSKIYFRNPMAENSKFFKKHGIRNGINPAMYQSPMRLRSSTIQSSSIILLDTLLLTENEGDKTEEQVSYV

[12] = molecular target: T5, 5-hydroxytryptamine receptor 2C (Homo sapiens, UniProt P28335); test: Displacement of [3H]mesulergine from human 5-HT2CR expressed in Flp-In HEK cell membranes incubated for 90 mins under dark condition by microbeta scintillation counting method; parameters: species or system HEK293
T5 sequence (P28335 whole entry): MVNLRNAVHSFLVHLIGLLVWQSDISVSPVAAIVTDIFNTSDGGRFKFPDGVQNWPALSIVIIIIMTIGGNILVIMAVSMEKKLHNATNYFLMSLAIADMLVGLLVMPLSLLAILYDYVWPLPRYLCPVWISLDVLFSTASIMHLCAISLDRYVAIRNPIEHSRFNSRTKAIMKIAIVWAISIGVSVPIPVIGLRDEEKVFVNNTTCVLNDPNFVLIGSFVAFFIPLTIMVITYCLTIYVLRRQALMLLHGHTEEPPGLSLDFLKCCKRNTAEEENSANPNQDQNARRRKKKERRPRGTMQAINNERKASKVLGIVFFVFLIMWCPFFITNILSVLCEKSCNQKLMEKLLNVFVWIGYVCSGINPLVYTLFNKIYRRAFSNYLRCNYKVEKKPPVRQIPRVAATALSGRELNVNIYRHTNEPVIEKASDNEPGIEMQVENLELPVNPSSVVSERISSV

[13] = molecular target: T6, 5-hydroxytryptamine receptor 2C (Homo sapiens) (UniProt P28335); test: Displacement of [3H]mesulergine from human 5-HT2CR expressed in Flp-In HEK cell membranes at 10 uM incubated for 90 mins under dark condition by microbeta scintillation counting method relative to control; settings: HEK293
T6 sequence (whole entry): T5 sequence (P28335 whole entry)

[14] = molecular target: T7, Adenosine receptor A1 (Homo sapiens) (UniProt P30542); test: Displacement of [3H]N6-phenylisopropyladenosine from recombinant human A1AR expressed in CHO cell membranes at 10 uM after 60 mins by liquid scintillation counting method relative to control
T7 sequence (whole entry): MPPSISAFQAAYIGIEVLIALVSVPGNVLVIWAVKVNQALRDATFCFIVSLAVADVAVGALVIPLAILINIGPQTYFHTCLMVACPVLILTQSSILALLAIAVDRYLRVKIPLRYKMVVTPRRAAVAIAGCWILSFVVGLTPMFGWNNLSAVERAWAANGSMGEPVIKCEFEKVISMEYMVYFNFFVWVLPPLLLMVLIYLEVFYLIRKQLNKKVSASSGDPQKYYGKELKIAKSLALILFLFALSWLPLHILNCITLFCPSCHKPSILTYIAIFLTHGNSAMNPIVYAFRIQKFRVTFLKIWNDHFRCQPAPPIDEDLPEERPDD

Adenosine receptor A2a = Adenosine receptor A2a (Homo sapiens, UniProt P29274); test: Displacement of [3 H]2-[p-(2-carboxyethyl)phenyl-ethylamino]-5'-N-ethylcarboxamidoadenosine from recombinant human adenosine receptor A2A expressed in HEK293 cell membranes at 10 uM after 60 mins by liquid scintillation counting method relative to control
Chain of Adenosine receptor A2a (P29274 whole entry): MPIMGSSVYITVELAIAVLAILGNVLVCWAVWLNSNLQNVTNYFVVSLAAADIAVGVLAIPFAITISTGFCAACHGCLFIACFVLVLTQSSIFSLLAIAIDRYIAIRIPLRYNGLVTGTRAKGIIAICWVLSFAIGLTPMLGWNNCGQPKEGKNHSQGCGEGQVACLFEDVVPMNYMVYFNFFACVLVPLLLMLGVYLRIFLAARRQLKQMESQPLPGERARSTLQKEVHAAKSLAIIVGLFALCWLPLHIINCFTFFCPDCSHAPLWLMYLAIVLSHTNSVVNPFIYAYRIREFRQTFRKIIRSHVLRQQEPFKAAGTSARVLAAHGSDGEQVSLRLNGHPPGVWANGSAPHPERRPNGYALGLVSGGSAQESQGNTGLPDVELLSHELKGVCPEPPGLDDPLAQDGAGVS

[15] = molecular target: T3, 5-hydroxytryptamine receptor 2A; test: Displacement of [3H]ketanserin from human 5-HT2A receptor expressed in HEK-T cell membranes incubated for 90 mins under dark condition by microbeta scintillation counting method
[16] = molecular target: T4, 5-hydroxytryptamine receptor 2B; settings: HEK293, at 10 µM
Adenosine receptor A1 = molecular target: T8, Adenosine receptor A1 (Homo sapiens, UniProt P30542); test: Displacement of [3H]N6-phenylisopropyladenosine from recombinant human A1AR expressed in CHO cell membranes after 60 mins by liquid scintillation counting method
T8 sequence (P30542 whole entry): T7 sequence (whole entry)

Adenosine receptor A3 = molecular target: T9, Adenosine receptor A3 (Homo sapiens, UniProt P0DMS8); test: Displacement of [125l]N 6-(4-amino-3-iodobenzyl)adenosine-5'-N-methyluronamide from recombinant human A3AR expressed in CHO cell membranes after 60 mins by gamma counting method
T9 sequence (P0DMS8 whole entry): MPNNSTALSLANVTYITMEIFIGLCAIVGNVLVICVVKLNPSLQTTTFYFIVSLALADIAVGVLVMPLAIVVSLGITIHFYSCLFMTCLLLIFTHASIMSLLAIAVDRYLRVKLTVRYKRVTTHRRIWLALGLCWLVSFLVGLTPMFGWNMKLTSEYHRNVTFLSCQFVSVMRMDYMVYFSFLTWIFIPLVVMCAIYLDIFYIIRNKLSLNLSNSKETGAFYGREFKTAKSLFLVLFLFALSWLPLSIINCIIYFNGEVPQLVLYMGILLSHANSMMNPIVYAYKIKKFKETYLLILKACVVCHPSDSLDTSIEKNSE

| Structure (SMILES) | inhibition [1] [%] | inhibition [2] [%] | inhibition [3] [%] | inhibition [4] [%] | inhibition [5] [%] | inhibition [6] [%] | inhibition [7] [%] | inhibition [8] [%] | inhibition [9] | inhibition [10] [%] | Ki [11] [nM] | Ki [12] [µM] | inhibition [13] [%] | inhibition [14] [%] | inhibition (Adenosine receptor A2a) [%] | Ki [15] [µM] | inhibition [16] [%] | Ki (Adenosine receptor A1) [nM] | Ki (Adenosine receptor A3) [nM] |
| --- | --- | --- | --- | --- | --- | --- | --- | --- | --- | --- | --- | --- | --- | --- | --- | --- | --- | --- | --- |
| CC(=O)NCCCNC(=O)[C@@]12C[C@@H]1[C@@H](n1cnc3c(NC(C4CC4)C4CC4)nc(Cl)nc31)[C@H](O)[C@@H]2O | < 50 | < 50 | < 50 | < 50 | < 50 | < 50 | < 50 | < 50 | < 50% | < 10 | 534 | 2.31 | > 50 | 46 | 26 | > 10 | > 50 | – | – |
| CN(C)c1nc(Cl)nc2c1ncn2[C@H]1[C@H](O)[C@H](O)[C@]2(CO)C[C@H]12 | < 50 | < 50 | < 50 | < 50 | < 50 | < 50 | < 50 | < 50 | < 50% | < 10 | 4800 | 8.1 | > 50 | 11 | < 10 | > 10 | > 50 | – | – |
| CC(=O)NCCNC(=O)[C@@]12C[C@@H]1[C@@H](n1cnc3c(NC(C4CC4)C4CC4)nc(Cl)nc31)[C@H](O)[C@@H]2O | < 50 | < 50 | < 50 | < 50 | < 50 | < 50 | < 50 | < 50 | < 50% | < 10 | 332 | 1.7 | > 50 | – | 20 | > 10 | > 50 | 397 | 1650 |
| CNC(=O)[C@@]12C[C@@H]1[C@@H](n1cnc3c(N(C)C)nc(Cl)nc31)[C@H](O)[C@@H]2O | < 50 | < 50 | < 50 | < 50 | < 50 | < 50 | < 50 | < 50 | < 50% | < 10 | 2100 | 4.3 | > 50 | 26 | < 10 | > 10 | > 50 | – | 1480 |
| CN(C)c1nc(Cl)nc2c1ncn2[C@H]1[C@H](O)[C@H](O)[C@]2(C(=O)O)C[C@H]12 | < 50 | < 50 | < 50 | < 50 | < 50 | < 50 | < 50 | < 50 | Active | < 10 | 4700 | 8 | > 50 | – | < 10 | > 10 | > 50 | – | 1080 |
| Fc1ccc(C#Cc2nc(NCc3cccc(Cl)c3)c3nc[nH]c3n2)cc1F | < 50 | < 50 | < 50 | < 50 | < 50 | < 50 | < 50 | < 50 | < 50% | < 10 | – | – | 11 | < 10 | < 10 | > 10 | > 50 | – | – |
| Clc1cccc(CNc2nc(Cl)nc3[nH]cnc23)c1 | < 50 | < 50 | < 50 | < 50 | < 50 | < 50 | < 50 | < 50 | < 50% | 26 | 2160 | – | > 50 | 45 | 37 | > 10 | > 50 | – | – |
